What was measured:
[1] = system: Tyrosine-protein kinase ABL1 (Homo sapiens), P00519 [T315I]
[2] = biological target: Activin receptor type-1-like (Homo sapiens) (UniProt P37023)
[3] = biological target: Serine/threonine-protein kinase B-raf (Homo sapiens) (UniProt P15056)
[4] = biological target: Mitotic checkpoint serine/threonine-protein kinase BUB1 (Homo sapiens) (UniProt O43683)
[5] = biological target: Calcium/calmodulin-dependent protein kinase type II subunit delta (Homo sapiens) (UniProt Q13557)
Sequence of Calcium/calmodulin-dependent protein kinase type II subunit delta (Homo sapiens) (Q13557 whole entry): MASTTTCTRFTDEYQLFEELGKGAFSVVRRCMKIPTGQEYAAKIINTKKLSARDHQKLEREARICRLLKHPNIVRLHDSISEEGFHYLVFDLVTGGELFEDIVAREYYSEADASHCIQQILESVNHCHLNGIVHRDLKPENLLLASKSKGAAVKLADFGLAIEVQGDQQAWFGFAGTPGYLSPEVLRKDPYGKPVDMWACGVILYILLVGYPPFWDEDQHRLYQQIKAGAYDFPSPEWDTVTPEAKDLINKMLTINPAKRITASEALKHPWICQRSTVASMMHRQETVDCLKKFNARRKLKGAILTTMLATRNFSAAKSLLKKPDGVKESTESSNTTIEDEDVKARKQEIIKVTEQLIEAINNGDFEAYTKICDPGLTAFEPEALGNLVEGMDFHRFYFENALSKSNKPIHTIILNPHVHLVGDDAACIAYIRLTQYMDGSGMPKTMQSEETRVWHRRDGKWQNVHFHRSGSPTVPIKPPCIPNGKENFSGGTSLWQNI

[6] = biological target: Cyclin-dependent kinase 11A (Homo sapiens) (UniProt Q9UQ88)
[7] = biological target: Cyclin-dependent kinase-like 1 (Homo sapiens) (UniProt Q00532)
[8] = biological target: Cyclin-dependent kinase-like 3 (Homo sapiens) (UniProt Q8IVW4)
[9] = biological target: Dual specificity protein kinase CLK2 (Homo sapiens) (UniProt P49760)
Sequence of Dual specificity protein kinase CLK2 (Homo sapiens) (P49760 whole entry, looked up): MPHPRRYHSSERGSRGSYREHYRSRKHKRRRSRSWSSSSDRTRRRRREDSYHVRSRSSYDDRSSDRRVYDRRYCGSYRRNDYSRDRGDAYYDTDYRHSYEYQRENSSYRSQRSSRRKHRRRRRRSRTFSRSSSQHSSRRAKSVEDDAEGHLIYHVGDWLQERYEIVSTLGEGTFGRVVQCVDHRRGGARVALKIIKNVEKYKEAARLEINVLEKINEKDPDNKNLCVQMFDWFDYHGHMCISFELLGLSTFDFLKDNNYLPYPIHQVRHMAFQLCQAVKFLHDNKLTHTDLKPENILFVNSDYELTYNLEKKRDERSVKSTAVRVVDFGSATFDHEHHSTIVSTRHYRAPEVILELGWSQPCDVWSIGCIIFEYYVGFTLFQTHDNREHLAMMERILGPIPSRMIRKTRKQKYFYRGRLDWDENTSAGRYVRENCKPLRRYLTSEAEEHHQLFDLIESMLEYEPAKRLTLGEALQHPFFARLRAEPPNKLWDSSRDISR

[10] = biological target: Death-associated protein kinase 2 (Homo sapiens) (UniProt Q9UIK4)
[11] = biological target: Dual specificity tyrosine-phosphorylation-regulated kinase 1B (Homo sapiens) (UniProt Q9Y463)
[12] = system: Epidermal growth factor receptor (Homo sapiens), P00533 [L861Q]
[13] = system: Epidermal growth factor receptor (Homo sapiens), P00533 [UNDEFINED MUTATION]
[14] = biological target: Ephrin type-A receptor 4 (Homo sapiens) (UniProt P54764)
[15] = biological target: Mitogen-activated protein kinase 4 (Homo sapiens) (UniProt P31152)
[16] = biological target: Receptor-type tyrosine-protein kinase FLT3 (Homo sapiens) (UniProt P36888)
[17] = system: Receptor-type tyrosine-protein kinase FLT3 (Homo sapiens), P36888 [D835Y]
[18] = system: Receptor-type tyrosine-protein kinase FLT3 (Homo sapiens), P36888 [UNDEFINED MUTATION]
[19] = biological target: Rhodopsin kinase GRK1 (Homo sapiens) (UniProt Q15835)
[20] = biological target: G protein-coupled receptor kinase 4 (Homo sapiens) (UniProt P32298)
[21] = biological target: Homeodomain-interacting protein kinase 1 (Homo sapiens) (UniProt Q86Z02)
[22] = biological target: Insulin receptor (Homo sapiens) (UniProt P06213)
[23] = system: Mast/stem cell growth factor receptor Kit (Homo sapiens), P10721 [L576P]
[24] = biological target: Serine/threonine-protein kinase STK11 (Homo sapiens) (UniProt Q15831)
[25] = biological target: Mitogen-activated protein kinase kinase kinase kinase 5 (Homo sapiens) (UniProt Q9Y4K4)
[26] = biological target: MAP/microtubule affinity-regulating kinase 3 (Homo sapiens) (UniProt P27448)
[27] = biological target: Dual specificity mitogen-activated protein kinase kinase 1 (Homo sapiens) (UniProt Q02750)
[28] = biological target: Dual specificity mitogen-activated protein kinase kinase 3 (Homo sapiens) (UniProt P46734)
[29] = biological target: Mitogen-activated protein kinase kinase kinase 11 (Homo sapiens) (UniProt Q16584)
[30] = biological target: Serine/threonine-protein kinase MRCK beta (Homo sapiens) (UniProt Q9Y5S2)
[31] = biological target: 1-phosphatidylinositol 3-phosphate 5-kinase (Homo sapiens) (UniProt Q9Y2I7)
Sequence of 1-phosphatidylinositol 3-phosphate 5-kinase (Homo sapiens) (Q9Y2I7 whole entry): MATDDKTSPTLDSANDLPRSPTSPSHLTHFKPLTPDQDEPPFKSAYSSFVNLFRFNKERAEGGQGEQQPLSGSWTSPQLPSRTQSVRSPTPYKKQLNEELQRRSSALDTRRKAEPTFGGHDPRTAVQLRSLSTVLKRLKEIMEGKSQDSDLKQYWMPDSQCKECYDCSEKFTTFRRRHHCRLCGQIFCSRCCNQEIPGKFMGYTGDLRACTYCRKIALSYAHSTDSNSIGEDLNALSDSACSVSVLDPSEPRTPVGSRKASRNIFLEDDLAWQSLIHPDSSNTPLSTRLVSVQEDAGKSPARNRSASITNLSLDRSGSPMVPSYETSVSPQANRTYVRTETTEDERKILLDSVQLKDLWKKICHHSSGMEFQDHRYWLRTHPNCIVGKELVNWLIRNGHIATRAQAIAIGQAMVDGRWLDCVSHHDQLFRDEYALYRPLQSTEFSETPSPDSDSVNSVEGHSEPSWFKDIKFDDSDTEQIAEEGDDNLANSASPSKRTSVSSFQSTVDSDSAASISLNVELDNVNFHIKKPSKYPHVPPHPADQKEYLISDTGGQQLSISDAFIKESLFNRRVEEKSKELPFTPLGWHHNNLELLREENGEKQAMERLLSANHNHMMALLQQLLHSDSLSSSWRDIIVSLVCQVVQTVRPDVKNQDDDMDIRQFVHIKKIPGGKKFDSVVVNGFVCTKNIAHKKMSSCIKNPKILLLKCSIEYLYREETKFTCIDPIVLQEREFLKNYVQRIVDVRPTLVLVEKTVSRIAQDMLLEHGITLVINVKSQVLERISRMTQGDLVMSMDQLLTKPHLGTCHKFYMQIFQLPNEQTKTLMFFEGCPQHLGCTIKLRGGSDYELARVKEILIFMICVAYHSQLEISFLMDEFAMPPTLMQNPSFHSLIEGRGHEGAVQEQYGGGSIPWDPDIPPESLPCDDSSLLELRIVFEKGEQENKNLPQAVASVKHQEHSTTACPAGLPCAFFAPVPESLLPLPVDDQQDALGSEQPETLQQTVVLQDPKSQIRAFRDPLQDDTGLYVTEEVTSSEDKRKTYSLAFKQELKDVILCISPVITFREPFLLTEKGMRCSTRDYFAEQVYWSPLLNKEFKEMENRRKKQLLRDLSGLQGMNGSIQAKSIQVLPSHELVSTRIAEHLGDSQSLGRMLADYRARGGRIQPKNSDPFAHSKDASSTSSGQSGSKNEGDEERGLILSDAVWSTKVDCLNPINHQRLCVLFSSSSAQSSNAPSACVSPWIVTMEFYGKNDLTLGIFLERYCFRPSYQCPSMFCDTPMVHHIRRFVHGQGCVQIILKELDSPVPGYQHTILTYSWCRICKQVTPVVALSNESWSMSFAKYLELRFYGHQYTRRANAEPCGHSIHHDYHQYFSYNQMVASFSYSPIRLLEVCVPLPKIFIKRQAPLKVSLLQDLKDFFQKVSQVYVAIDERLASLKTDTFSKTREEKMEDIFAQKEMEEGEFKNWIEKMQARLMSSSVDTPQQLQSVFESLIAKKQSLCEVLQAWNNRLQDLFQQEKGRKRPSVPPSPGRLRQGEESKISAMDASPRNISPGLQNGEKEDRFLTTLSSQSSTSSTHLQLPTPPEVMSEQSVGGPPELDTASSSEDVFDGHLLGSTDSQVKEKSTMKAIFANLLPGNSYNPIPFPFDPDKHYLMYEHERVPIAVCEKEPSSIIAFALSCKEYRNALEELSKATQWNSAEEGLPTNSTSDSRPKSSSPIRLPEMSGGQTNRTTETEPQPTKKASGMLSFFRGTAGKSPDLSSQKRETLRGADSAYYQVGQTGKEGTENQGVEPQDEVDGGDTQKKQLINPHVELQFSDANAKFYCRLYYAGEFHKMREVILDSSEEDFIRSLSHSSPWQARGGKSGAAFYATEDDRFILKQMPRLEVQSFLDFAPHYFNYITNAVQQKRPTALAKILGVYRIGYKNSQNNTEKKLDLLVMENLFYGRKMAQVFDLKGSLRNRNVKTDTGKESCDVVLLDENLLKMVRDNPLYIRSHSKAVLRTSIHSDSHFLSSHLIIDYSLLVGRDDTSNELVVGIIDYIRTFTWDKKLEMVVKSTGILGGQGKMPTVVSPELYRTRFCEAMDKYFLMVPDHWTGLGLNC

[32] = biological target: Phosphatidylinositol 5-phosphate 4-kinase type-2 beta (Homo sapiens) (UniProt P78356)
[33] = biological target: Protein kinase C delta type (Homo sapiens) (UniProt Q05655)
[34] = biological target: cGMP-dependent protein kinase 2 (Homo sapiens) (UniProt Q13237)
Sequence of cGMP-dependent protein kinase 2 (Homo sapiens) (Q13237 whole entry): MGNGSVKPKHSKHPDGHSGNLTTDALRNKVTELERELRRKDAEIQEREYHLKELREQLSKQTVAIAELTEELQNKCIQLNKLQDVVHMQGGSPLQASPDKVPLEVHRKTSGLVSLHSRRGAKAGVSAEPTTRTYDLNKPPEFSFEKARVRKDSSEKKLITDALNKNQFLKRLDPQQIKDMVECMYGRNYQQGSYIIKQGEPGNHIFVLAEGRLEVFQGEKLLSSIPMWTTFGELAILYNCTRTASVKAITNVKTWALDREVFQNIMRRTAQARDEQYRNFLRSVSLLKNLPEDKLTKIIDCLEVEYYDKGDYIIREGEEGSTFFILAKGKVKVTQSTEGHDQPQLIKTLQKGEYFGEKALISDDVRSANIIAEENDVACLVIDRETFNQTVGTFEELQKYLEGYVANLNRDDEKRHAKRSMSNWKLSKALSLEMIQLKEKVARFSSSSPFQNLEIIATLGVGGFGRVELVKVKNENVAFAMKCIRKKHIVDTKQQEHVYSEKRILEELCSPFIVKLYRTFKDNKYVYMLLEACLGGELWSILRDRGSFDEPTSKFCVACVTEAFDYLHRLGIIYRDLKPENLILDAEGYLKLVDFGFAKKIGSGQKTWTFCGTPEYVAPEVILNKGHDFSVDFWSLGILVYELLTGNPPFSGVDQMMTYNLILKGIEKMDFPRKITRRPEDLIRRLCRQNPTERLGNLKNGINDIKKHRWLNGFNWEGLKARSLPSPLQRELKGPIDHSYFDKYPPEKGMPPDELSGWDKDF

[35] = biological target: Proto-oncogene tyrosine-protein kinase receptor Ret (Homo sapiens) (UniProt P07949)
[36] = biological target: Ribosomal protein S6 kinase alpha-1 (Homo sapiens) (UniProt Q15418)
[37] = biological target: NUAK family SNF1-like kinase 2 (Homo sapiens) (UniProt Q9H093)
[38] = biological target: Dual specificity testis-specific protein kinase 1 (Homo sapiens) (UniProt Q15569)
[39] = biological target: Serine/threonine-protein kinase tousled-like 2 (Homo sapiens) (UniProt Q86UE8)
[40] = biological target: Activated CDC42 kinase 1 (Homo sapiens) (UniProt Q07912)
[41] = biological target: Testis-specific serine/threonine-protein kinase 1 (Homo sapiens) (UniProt Q9BXA7)
[42] = biological target: Testis-specific serine/threonine-protein kinase 3 (Homo sapiens) (UniProt Q96PN8)
Sequence of Testis-specific serine/threonine-protein kinase 3 (Homo sapiens) (Q96PN8 whole entry): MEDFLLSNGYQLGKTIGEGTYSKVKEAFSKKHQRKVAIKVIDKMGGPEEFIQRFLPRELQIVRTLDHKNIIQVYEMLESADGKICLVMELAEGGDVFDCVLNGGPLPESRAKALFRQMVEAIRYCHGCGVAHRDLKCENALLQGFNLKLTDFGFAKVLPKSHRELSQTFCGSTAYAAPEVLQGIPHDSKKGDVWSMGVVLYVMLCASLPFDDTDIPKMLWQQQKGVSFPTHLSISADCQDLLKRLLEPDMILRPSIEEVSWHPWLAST

[43] = biological target: Vascular endothelial growth factor receptor 2 (Homo sapiens) (UniProt P35968)
[44] = biological target: 5-hydroxytryptamine receptor 1B (Homo sapiens) (UniProt P28222); details: Compound concentration 10.0 uM
[45] = biological target: Alpha-1D adrenergic receptor (Homo sapiens) (UniProt P25100); details: Compound concentration 10.0 uM
[46] = Compound concentration 100.0 nM
[47] = Compound concentration 1000.0 nM

Sequence of Serine/threonine-protein kinase B-raf (Homo sapiens) (P15056 whole entry): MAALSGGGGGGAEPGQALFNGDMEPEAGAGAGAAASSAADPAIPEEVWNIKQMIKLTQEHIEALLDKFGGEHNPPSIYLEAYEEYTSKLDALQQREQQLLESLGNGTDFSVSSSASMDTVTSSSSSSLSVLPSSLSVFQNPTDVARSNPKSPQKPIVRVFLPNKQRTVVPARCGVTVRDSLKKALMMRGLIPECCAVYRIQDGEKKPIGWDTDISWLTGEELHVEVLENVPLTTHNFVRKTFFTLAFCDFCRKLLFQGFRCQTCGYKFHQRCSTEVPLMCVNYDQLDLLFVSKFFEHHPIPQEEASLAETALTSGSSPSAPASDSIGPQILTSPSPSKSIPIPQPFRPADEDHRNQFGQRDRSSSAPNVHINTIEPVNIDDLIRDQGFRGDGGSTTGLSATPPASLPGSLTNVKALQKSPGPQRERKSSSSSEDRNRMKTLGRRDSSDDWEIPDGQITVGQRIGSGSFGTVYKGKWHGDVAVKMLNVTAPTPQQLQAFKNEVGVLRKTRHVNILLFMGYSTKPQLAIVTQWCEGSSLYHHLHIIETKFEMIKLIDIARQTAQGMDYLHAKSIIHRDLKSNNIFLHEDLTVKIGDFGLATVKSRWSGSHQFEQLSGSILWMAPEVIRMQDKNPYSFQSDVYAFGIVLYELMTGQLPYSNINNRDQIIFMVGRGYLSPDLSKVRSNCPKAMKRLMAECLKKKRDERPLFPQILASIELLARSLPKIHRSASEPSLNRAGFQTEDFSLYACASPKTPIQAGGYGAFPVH

CNC(=O)c1ccc(Nc2ncc(C(F)(F)F)c(NCc3nccnc3N(C)S(C)(=O)=O)n2)cc1 [DEFACTINIB]
residual activity [1, 46]: 93% | residual activity [2, 46]: 100% | residual activity [3, 46]: 100% | residual activity [4, 46]: 100% | residual activity [5, 46]: 83% | residual activity [6, 46]: 77% | residual activity [7, 46]: 82% | residual activity [8, 46]: 92% | residual activity [9, 46]: 0% | residual activity [10, 46]: 68% | residual activity [11, 46]: 79% | residual activity [12, 46]: 100% | residual activity [13, 46]: 85% | residual activity [14, 46]: 99% | residual activity [15, 46]: 87% | residual activity [16, 46]: 46% | residual activity [17, 46]: 5.9% | residual activity [18, 46]: 9% | residual activity [19, 46]: 99% | residual activity [20, 46]: 98% | residual activity [21, 46]: 27% | residual activity [22, 46]: 91% | residual activity [23, 46]: 86% | residual activity [24, 46]: 100% | residual activity [25, 46]: 100% | residual activity [26, 46]: 90% | residual activity [27, 46]: 100% | residual activity [28, 46]: 48% | residual activity [29, 46]: 35% | residual activity [30, 46]: 90% | residual activity [31, 46]: 100% | residual activity [32, 46]: 91% | residual activity [33, 46]: 100% | residual activity [34, 46]: 100% | residual activity [35, 46]: 60% | residual activity [36, 46]: 100% | residual activity [37, 46]: 53% | residual activity [38, 46]: 96% | residual activity [39, 46]: 90% | residual activity [40, 46]: 100% | residual activity [41, 46]: 64% | residual activity [42, 46]: 77% | residual activity [43, 46]: 73% | inhibition [44]: 12.5% | inhibition [45]: 4.13%

CN(c1ccnc(CNc2nc(Nc3ccc4c(c3)CC(=O)N4)ncc2C(F)(F)F)n1)S(C)(=O)=O [PF-00911705]
residual activity [1, 47]: 36% | residual activity [2, 47]: 100% | residual activity [3, 47]: 82% | residual activity [4, 47]: 91% | residual activity [5, 47]: 100% | residual activity [6, 47]: 94% | residual activity [7, 47]: 61% | residual activity [8, 47]: 78% | residual activity [9, 47]: 0% | residual activity [10, 47]: 58% | residual activity [11, 47]: 31% | residual activity [12, 47]: 70% | residual activity [13, 47]: 76% | residual activity [14, 47]: 90% | residual activity [15, 47]: 57% | residual activity [16, 47]: 23% | residual activity [17, 47]: 2% | residual activity [18, 47]: 0% | residual activity [19, 47]: 74% | residual activity [20, 47]: 10% | residual activity [21, 47]: 45% | residual activity [22, 47]: 100% | residual activity [23, 47]: 66% | residual activity [24, 47]: 72% | residual activity [25, 47]: 72% | residual activity [26, 47]: 52% | residual activity [27, 47]: 85% | residual activity [28, 47]: 58% | residual activity [29, 47]: 32% | residual activity [30, 47]: 100% | residual activity [31, 47]: 100% | residual activity [32, 47]: 4.8% | residual activity [33, 47]: 78% | residual activity [34, 47]: 68% | residual activity [35, 47]: 49% | residual activity [36, 47]: 100% | residual activity [37, 47]: 7.6% | residual activity [38, 47]: 97% | residual activity [39, 47]: 100% | residual activity [40, 47]: 86% | residual activity [41, 47]: 56% | residual activity [42, 47]: 80% | residual activity [43, 47]: 56% | inhibition [44]: 5.78% | inhibition [45]: 15.9%
